Data published in the NIST ThermoML archive (doi:10.1021/je200788z).
Numbers after ± are expanded uncertainties.

How the values were obtained:
[1] = 101.33 kPa, Liquid; for speed of sound: Sing-around technique in a fixed-path interferometer; for mass density: Vibrating tube method
[2] = refractive index (Na D-line) (dimensionless); settings: 101.33 kPa, Liquid, Standard Abbe refractometry

Structure (SMILES) | speed of sound ([1]; 288.15 K) [m/s] | speed of sound ([1]; 293.15 K) [m/s] | speed of sound ([1]; 303.15 K) [m/s] | speed of sound ([1]; 308.15 K) [m/s] | speed of sound ([1]; 313.15 K) [m/s] | speed of sound ([1]; 318.15 K) [m/s] | speed of sound ([1]; 323.15 K) [m/s] | speed of sound ([1]; 328.15 K) [m/s] | speed of sound ([1]; 333.15 K) [m/s] | speed of sound ([1]; 338.15 K) [m/s] | speed of sound ([1]; 343.15 K) [m/s] | refractive index ([2]; 303.15 K) | refractive index ([2]; 308.15 K) | refractive index ([2]; 313.15 K) | refractive index ([2]; 318.15 K) | refractive index ([2]; 323.15 K) | refractive index ([2]; 328.15 K) | refractive index ([2]; 333.15 K) | refractive index ([2]; 338.15 K) | refractive index ([2]; 343.15 K) | other results
CC(C)COC(=O)[C@@H](N)C(C)C.CCCCCCCCCCCCOS(=O)(=O)O [isobutyl L-valinate dodecyl sulfate] | 1434.4 ± 5.1 | 1421.3 ± 5.1 | 1394.6 ± 5 | 1379.9 ± 5 | 1365.5 ± 5 | 1350.9 ± 5 | 1335.5 ± 5 | 1318.1 ± 5 | 1299.9 ± 5 | 1275 ± 5 | 1249.5 ± 5 | 1.4519 ± 0.0011 | 1.4505 ± 0.0011 | 1.4488 ± 0.0011 | 1.4471 ± 0.0011 | 1.4455 ± 0.0011 | 1.4438 ± 0.0011 | 1.4422 ± 0.0011 | 1.4406 ± 0.0011 | 1.439 ± 0.0011 | speed of sound ([1]; 298.15 K): 1408.6 ± 5 m/s; refractive index ([2]; 288.15 K): 1.4568 ± 0.0011; refractive index ([2]; 293.15 K): 1.4555 ± 0.0011; refractive index ([2]; 298.15 K): 1.4538 ± 0.0011
CC(C)COC(=O)C[NH3+].CCCCCCCCCCCCOS(=O)(=O)[O-] [2-isobutoxy-2-oxoethan-1-aminium dodecyl sulfate] |  |  | 1372.1 ± 5 | 1355.2 ± 5 | 1339 ± 5 | 1323 ± 5 | 1307.6 ± 5 | 1292.5 ± 5 | 1277.6 ± 5 | 1263 ± 5 | 1248.7 ± 5 | 1.4624 ± 0.0011 | 1.4592 ± 0.0011 | 1.456 ± 0.0011 | 1.4527 ± 0.0011 | 1.4494 ± 0.0011 | 1.4462 ± 0.0011 | 1.443 ± 0.0011 | 1.4397 ± 0.0011 | 1.4365 ± 0.0011 | mass density ([1]; 303.15 K): 1013.62 ± 5.5 kg/m3; mass density ([1]; 308.15 K): 1009.88 ± 5.5 kg/m3; mass density ([1]; 313.15 K): 1006.14 ± 5.5 kg/m3; mass density ([1]; 318.15 K): 1002.38 ± 5.4 kg/m3; mass density ([1]; 323.15 K): 998.71 ± 5.4 kg/m3; mass density ([1]; 328.15 K): 995.15 ± 5.3 kg/m3; mass density ([1]; 333.15 K): 991.89 ± 5.3 kg/m3; mass density ([1]; 338.15 K): 988.22 ± 5.3 kg/m3; mass density ([1]; 343.15 K): 984.53 ± 5.2 kg/m3
CC(C)COC(=O)[C@H](C)[NH3+].CCCCCCCCCCCCOS(=O)(=O)[O-] [(S)-1-isobutoxy-1-oxopropan-2-aminium dodecyl sulfate] | 1447.6 ± 5.1 | 1423.6 ± 5.1 | 1381.6 ± 5 | 1362.5 ± 5 | 1343.9 ± 5 | 1325.8 ± 5 | 1308.1 ± 5 | 1291.2 ± 5 | 1275.8 ± 5 | 1261 ± 5 | 1246.6 ± 5 | 1.45 ± 0.0011 | 1.4479 ± 0.0011 | 1.4458 ± 0.0011 | 1.4437 ± 0.0011 | 1.4418 ± 0.0011 | 1.4397 ± 0.0011 | 1.4377 ± 0.0011 | 1.4354 ± 0.0011 | 1.4336 ± 0.0011 | mass density ([1]; 288.15 K): 1049.18 ± 6 kg/m3; mass density ([1]; 293.15 K): 1045.48 ± 5.9 kg/m3; speed of sound ([1]; 298.15 K): 1401.9 ± 5 m/s; mass density ([1]; 298.15 K): 1041.75 ± 5.9 kg/m3; mass density ([1]; 303.15 K): 1038.02 ± 5.8 kg/m3; mass density ([1]; 308.15 K): 1034.13 ± 5.8 kg/m3; mass density ([1]; 313.15 K): 1030.13 ± 5.7 kg/m3; mass density ([1]; 318.15 K): 1026.31 ± 5.7 kg/m3; mass density ([1]; 323.15 K): 1022.6 ± 5.7 kg/m3; mass density ([1]; 328.15 K): 1019.08 ± 5.6 kg/m3; mass density ([1]; 333.15 K): 1015.6 ± 5.6 kg/m3; mass density ([1]; 338.15 K): 1012.14 ± 5.5 kg/m3; mass density ([1]; 343.15 K): 1008.75 ± 5.5 kg/m3; refractive index ([2]; 288.15 K): 1.456 ± 0.0011; refractive index ([2]; 293.15 K): 1.454 ± 0.0011; refractive index ([2]; 298.15 K): 1.452 ± 0.0011
CC(C)OC(=O)[C@@H]([NH3+])C(C)C.CCCCCCCCCCCCOS(=O)(=O)[O-] | 1438.4 ± 5.1 | 1418.5 ± 5.1 | 1382.9 ± 5 | 1365.9 ± 5 | 1349.4 ± 5 | 1333.2 ± 5 | 1317.4 ± 5 | 1301.9 ± 5 | 1286.6 ± 5 | 1270.4 ± 5 | 1254.9 ± 5 | 1.4514 ± 0.0011 | 1.4495 ± 0.0011 | 1.4483 ± 0.0011 | 1.4465 ± 0.0011 | 1.445 ± 0.0011 | 1.4434 ± 0.0011 | 1.4419 ± 0.0011 | 1.4403 ± 0.0011 | 1.4388 ± 0.0011 | mass density ([1]; 288.15 K): 1033.35 ± 5.8 kg/m3; mass density ([1]; 293.15 K): 1029.74 ± 5.7 kg/m3; speed of sound ([1]; 298.15 K): 1400.5 ± 5 m/s; mass density ([1]; 298.15 K): 1026.11 ± 5.7 kg/m3; mass density ([1]; 303.15 K): 1022.44 ± 5.7 kg/m3; mass density ([1]; 308.15 K): 1018.71 ± 5.6 kg/m3; mass density ([1]; 313.15 K): 1014.93 ± 5.6 kg/m3; mass density ([1]; 318.15 K): 1011.36 ± 5.5 kg/m3; mass density ([1]; 323.15 K): 1007.86 ± 5.5 kg/m3; mass density ([1]; 328.15 K): 1004.37 ± 5.4 kg/m3; mass density ([1]; 333.15 K): 1000.88 ± 5.4 kg/m3; mass density ([1]; 338.15 K): 997.39 ± 5.4 kg/m3; mass density ([1]; 343.15 K): 993.9 ± 5.3 kg/m3; refractive index ([2]; 288.15 K): 1.4555 ± 0.0011; refractive index ([2]; 293.15 K): 1.4541 ± 0.0011; refractive index ([2]; 298.15 K): 1.4527 ± 0.0011
